Source: patent US7803837B2, “4-oxo-4,5-dihydro-furan-2-carboxylic acid derivatives and methods of treatment of metabolic-related disorders thereof” (Arena Pharmaceuticals, Inc., priority 2003, dated 2010)

Test system: free fatty acid production
Assay: Inhibition of free fatty-acid production, in vivo, in catheterized male rats (NEFA assay on serum)
Design: species or system Sprague-Daly Rats
Conditions: food deprived catheterized rats, IP administration at various concentrations, FIG. 2A/2B
Procedure: Inhibition of Free Fatty-Acid Production, In Vivo, in Catheterized Male Sprague-Daly Rats
Non-esterified free-fatty acid (NEFA) assays were done on serum derived from live, freely moving rats. Jugular vein catheters were surgically implanted into the jugular veins and the animals were allowed to recover at least 48 hr post surgery. Food was removed from the animals approximately 16 hours prior to the assay. A draw of ˜200 μl blood was pulled from the catheter and represents the baseline NEFA serum sample. Drug was administered intra-peritoneally (IP) at various concentrations to individual rats and then ˜200 μl blood draws were pulled from the catheter at the indicated time points for further NEFA analysis. NEFA assays were performed according to the manufacturer's specifications (Wako Chemicals, USA; NEFA C) and free fatty acid concentrations were determined via regression analysis of a known standard curve (range of known free fatty acids). Data was analyzed using Excel and PrismGraph.

SMILES	inhibition of plasma free fatty acid (NEFA)
CC1(C2=CCCCC2)OC(C(=O)O)=CC1=O (racemic) [Compound 1, 5-Cyclohex-1-enyl-5-methyl-4-oxo-4,5-dihydro-furan-2-carboxylic acid]	able to inhibit free fatty acid production to the same extent, at similar doses and within the same time-frame as compared to nicotinic acid
O=C(O)c1cccnc1 [nicotinic acid, pyridine-3-carboxylic acid]	inhibiting plasma free fatty acid concentrations
